Experimental data taken from ChEMBL document CHEMBL3400114, “The design, synthesis and biological evaluation of conformationally restricted 4-substituted-2,6-dimethylfuro[2,3-d]pyrimidines as multi-targeted receptor tyrosine kinase and microtubule inhibitors as potential antitumor agents” (Bioorg Med Chem, 2015).
pIC50: −log10 of the molar value.

Key:
[1] = Antiangiogenic activity in VEGF-165 and bFGF-stimulated chicken embryo chorioallantoic membrane assessed as inhibition of blood vessel formation after 40 hrs by microscopy; type: functional, tissue-based, Gallus gallus
786-0 = assay: Growth inhibition of human 786-0 cells after 48 hrs by sulforhodamine B assay; type: functional; settings: 786-0, 48 h
SNB-75 = assay: Growth inhibition of human SNB75 cells after 48 hrs by sulforhodamine B assay; type: functional; settings: SNB-75, 48 h
[2] = Growth inhibition of human BT549 cells after 48 hrs by sulforhodamine B assay; type: functional; settings: BT-549, 48 h
[3] = Antiproliferative activity against human SKOV3-MDR1-M6/6 cells overexpressing wild type beta3 tubulin after 48 hrs by sulforhodamine B assay; type: functional, cell-based; settings: SKOV3-MDR1-M6/6, 48 h
MDA-MB-468 = assay: Growth inhibition of human MDA-MB-468 cells after 48 hrs by sulforhodamine B assay; type: functional; settings: MDA-MB-468, 48 h
Malme-3M = assay: Growth inhibition of human MALME-3M cells after 48 hrs by sulforhodamine B assay; type: functional
[4] = Growth inhibition of human OVCAR8 cells after 48 hrs by sulforhodamine B assay; type: functional; settings: OVCAR-8, 48 h
Tubulin (Bos taurus) = Tubulin (Bos taurus) (UniProt Q6B856+Q862L2+Q862F3); assay: Displacement of [3H]colchicine from bovine brain tubulin assembly at 1 uM
HOP-62 = assay: Growth inhibition of human HOP62 cells after 48 hrs by sulforhodamine B assay; type: functional; settings: HOP-62, 48 h
[5] = Growth inhibition of human RXF393 cells after 48 hrs by sulforhodamine B assay; type: functional; settings: RXF 393, 48 h
SNB-19 = assay: Growth inhibition of human SNB19 cells after 48 hrs by sulforhodamine B assay; type: functional; settings: SNB-19, 48 h
NCI-H23 = assay: Growth inhibition of human NCI-H23 cells after 48 hrs by sulforhodamine B assay; type: functional; settings: NCI-H23, 48 h
[6] = Growth inhibition of human UACC62 cells after 48 hrs by sulforhodamine B assay; type: functional; settings: UACC-62, 48 h
IGROV-1 = assay: Growth inhibition of human IGROV1 cells after 48 hrs by sulforhodamine B assay; type: functional; settings: IGROV-1, 48 h

## COc1ccc2c(c1)CCCN2c1nc(C)nc2oc(C)cc12
[1]
  pIC50: 3.98
786-0
  GI50: < 10 nM
SNB-75
  GI50: < 10 nM
[2]
  GI50: < 10 nM
[3]
  pIC50: 7.71
MDA-MB-468
  GI50: < 10 nM
Malme-3M
  GI50: < 10 nM
[4]
  GI50: < 10 nM
Tubulin (Bos taurus)
  inhibition: 82%
HOP-62
  GI50: < 10 nM
[5]
  GI50: < 10 nM
SNB-19
  GI50: < 10 nM
NCI-H23
  GI50: < 10 nM
[6]
  GI50: < 10 nM
IGROV-1
  GI50: < 10 nM
